ChEMBL document CHEMBL5058649, “Data for DCP probe BAY 1816032” (2022)
Calls of active or inactive are those of the source. The calls are words filed in the database; no cut-off is given here.

Legend:
[1] = biological target: L-type calcium channel, dihydropyridine site (Cav1.2 alpha-1C) (Homo sapiens, UniProt Q13936); experiment: Inhibition of Calcium Channel L-Type, Dihydropyridine at 10 µM in the Eurofins-Panlabs radioligand binding assay (Eurofins_assay_214600); parameters: ligand concentration 0.1 nM, non-specific ligand with concentration 1 µM Nitrendipine, incubation time 90 min, incubation temperature 25 °C; conditions: Wistar, rat, rat cerebral cortex preparation, probe [3H] Nitrendipine; compound concentration 10 uM; target entry is the homologue from another species
Sequence of L-type calcium channel, dihydropyridine site (Cav1.2 alpha-1C) (Q13936 whole entry): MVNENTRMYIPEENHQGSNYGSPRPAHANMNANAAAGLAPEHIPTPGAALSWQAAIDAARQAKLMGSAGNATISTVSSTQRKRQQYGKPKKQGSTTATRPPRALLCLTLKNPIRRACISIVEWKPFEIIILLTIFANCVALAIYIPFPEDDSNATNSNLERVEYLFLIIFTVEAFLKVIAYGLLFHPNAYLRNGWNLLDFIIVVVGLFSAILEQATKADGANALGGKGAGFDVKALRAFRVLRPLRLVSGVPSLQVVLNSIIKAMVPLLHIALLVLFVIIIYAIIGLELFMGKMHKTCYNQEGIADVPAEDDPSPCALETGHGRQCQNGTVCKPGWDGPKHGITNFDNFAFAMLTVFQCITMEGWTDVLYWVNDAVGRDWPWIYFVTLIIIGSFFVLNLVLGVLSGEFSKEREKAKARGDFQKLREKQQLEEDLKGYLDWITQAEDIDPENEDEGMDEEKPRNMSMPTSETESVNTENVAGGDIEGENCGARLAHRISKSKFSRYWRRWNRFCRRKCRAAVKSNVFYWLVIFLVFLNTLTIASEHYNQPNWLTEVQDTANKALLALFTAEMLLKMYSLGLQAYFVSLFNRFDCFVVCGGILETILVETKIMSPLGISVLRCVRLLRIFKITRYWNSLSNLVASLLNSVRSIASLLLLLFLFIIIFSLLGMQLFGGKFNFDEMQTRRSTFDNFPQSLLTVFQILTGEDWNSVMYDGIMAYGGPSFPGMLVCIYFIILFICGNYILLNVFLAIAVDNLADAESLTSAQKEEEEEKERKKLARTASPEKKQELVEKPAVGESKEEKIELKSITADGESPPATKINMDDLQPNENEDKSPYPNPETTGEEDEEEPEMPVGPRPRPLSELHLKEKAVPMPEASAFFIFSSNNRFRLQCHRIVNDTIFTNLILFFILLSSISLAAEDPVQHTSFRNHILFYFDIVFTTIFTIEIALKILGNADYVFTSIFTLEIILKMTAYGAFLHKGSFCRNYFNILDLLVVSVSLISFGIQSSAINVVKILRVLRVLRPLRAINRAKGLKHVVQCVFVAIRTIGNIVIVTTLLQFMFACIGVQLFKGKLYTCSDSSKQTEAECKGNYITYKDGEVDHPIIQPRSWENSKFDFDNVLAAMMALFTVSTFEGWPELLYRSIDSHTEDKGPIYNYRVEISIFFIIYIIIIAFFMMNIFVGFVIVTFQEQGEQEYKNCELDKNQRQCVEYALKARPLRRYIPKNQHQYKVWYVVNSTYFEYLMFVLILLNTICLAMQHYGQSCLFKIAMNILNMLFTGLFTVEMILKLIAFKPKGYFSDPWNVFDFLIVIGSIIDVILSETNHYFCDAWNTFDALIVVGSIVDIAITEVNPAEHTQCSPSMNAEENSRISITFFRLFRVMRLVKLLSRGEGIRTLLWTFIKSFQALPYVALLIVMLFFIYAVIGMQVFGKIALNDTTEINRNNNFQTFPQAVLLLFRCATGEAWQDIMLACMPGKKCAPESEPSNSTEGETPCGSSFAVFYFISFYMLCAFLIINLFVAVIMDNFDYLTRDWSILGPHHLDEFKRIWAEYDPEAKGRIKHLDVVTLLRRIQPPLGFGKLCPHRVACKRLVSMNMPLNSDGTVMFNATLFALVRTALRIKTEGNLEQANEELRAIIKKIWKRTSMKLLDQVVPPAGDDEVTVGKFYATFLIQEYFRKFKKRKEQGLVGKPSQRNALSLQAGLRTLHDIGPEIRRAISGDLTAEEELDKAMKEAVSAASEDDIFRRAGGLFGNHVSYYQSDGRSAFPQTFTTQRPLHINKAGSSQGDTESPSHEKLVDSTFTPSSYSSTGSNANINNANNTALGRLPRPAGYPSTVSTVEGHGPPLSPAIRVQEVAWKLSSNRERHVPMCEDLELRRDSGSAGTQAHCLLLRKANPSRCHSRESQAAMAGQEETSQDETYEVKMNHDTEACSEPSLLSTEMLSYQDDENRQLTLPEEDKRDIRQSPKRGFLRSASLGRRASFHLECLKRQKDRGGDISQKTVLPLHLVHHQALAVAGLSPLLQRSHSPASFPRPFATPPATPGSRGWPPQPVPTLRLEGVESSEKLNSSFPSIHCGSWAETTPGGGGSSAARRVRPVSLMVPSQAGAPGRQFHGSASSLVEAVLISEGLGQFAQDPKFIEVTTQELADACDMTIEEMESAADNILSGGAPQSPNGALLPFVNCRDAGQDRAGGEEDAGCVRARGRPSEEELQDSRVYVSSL

[2] = biological target: Acetylcholine receptor subunit alpha (Homo sapiens) (UniProt P02708); experiment: Inhibition of Nicotinic Acetylcholine D1, Bungarotoxin at 10 µM in the Eurofins-Panlabs radioligand binding assay (Eurofins_assay_258700); conditions: Compound concentration 10.0 uM
[3] = biological target: Prostaglandin G/H synthase 1 (Homo sapiens) (UniProt P23219); experiment: Inhibition of Cyclooxygenase COX-1 at compound concentration of 10.0 uM in the Eurofins-Panlabs enzyme assay (Eurofins_assay_116020); conditions: Compound concentration 10.0 uM
Rattus norvegicus [4] = species: Rattus norvegicus; experiment: Glutamate, NMDA, Polyamine Eurofins-Panlabs radioligand binding assay; assay type: protein-complex assay; parameters: ligand concentration 2 nM; conditions: Compound concentration 10.0 uM
[5] = biological target: Mitotic checkpoint serine/threonine-protein kinase BUB1 (Homo sapiens, UniProt O43683); experiment: BUB1 biochemical assay (low ATP)
[6] = biological target: Phosphatidylinositol 3-kinase catalytic subunit type 3 (Homo sapiens) (UniProt Q8NEB9); experiment: VPS34 DiscoveRx kinase panel; conditions: Compound concentration 1.0 uM
[7] = biological target: Mitogen-activated protein kinase kinase kinase kinase 4 (Homo sapiens) (UniProt O95819); experiment: MAP4K4 DiscoveRx kinase panel; conditions: Compound concentration 1.0 uM
[8] = biological target: Myosin light chain kinase 2, skeletal/cardiac muscle (Homo sapiens) (UniProt Q9H1R3); experiment: MYLK2 DiscoveRx kinase panel; conditions: Compound concentration 1.0 uM
[9] = biological target: Receptor-interacting serine/threonine-protein kinase 4 (Homo sapiens) (UniProt P57078); experiment: RIPK4 DiscoveRx kinase panel; conditions: Compound concentration 1.0 uM
[10] = biological target: Activin receptor type-1B (Homo sapiens) (UniProt P36896); experiment: ACVR1B DiscoveRx kinase panel; conditions: Compound concentration 1.0 uM
[11] = biological target: Hepatocyte growth factor receptor (Homo sapiens) (UniProt P08581); experiment: MET DiscoveRx kinase panel; conditions: Compound concentration 1.0 uM
[12] = biological target: Serine/threonine-protein kinase 3 (Homo sapiens) (UniProt Q13188); experiment: MST2 DiscoveRx kinase panel; conditions: Compound concentration 1.0 uM
[13] = biological target: Serine/threonine-protein kinase 32B (Homo sapiens) (UniProt Q9NY57); experiment: YANK2 DiscoveRx kinase panel; conditions: Compound concentration 1.0 uM
[14] = biological target: Dual specificity protein kinase CLK4 (Homo sapiens) (UniProt Q9HAZ1); experiment: CLK4 DiscoveRx kinase panel; conditions: Compound concentration 1.0 uM
[15] = biological target: Cyclin-dependent kinase 2 (Homo sapiens) (UniProt P24941); experiment: CDK2 DiscoveRx kinase panel; conditions: Compound concentration 1.0 uM
[16] = biological target: Casein kinase I isoform alpha-like (Homo sapiens) (UniProt Q8N752); experiment: CSNK1A1L DiscoveRx kinase panel; conditions: Compound concentration 1.0 uM
Sequence of Casein kinase I isoform alpha-like (Homo sapiens) (Q8N752 whole entry, canonical isoform): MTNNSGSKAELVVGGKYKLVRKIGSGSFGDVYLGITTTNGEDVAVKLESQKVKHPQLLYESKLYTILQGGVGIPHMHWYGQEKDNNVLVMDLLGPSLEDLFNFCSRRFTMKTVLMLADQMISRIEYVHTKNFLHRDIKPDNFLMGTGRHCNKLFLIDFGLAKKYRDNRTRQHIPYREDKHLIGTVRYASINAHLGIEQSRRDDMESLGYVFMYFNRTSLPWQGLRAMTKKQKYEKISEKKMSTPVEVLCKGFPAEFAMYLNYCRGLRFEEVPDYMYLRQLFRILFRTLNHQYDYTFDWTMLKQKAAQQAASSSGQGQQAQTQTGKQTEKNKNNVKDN

[17] = biological target: Tyrosine-protein kinase JAK1 (Homo sapiens) (UniProt P23458); experiment: JAK1(JH1domain-catalytic) DiscoveRx kinase panel; conditions: Compound concentration 1.0 uM
Sequence of Tyrosine-protein kinase JAK1 (Homo sapiens) (P23458 whole entry): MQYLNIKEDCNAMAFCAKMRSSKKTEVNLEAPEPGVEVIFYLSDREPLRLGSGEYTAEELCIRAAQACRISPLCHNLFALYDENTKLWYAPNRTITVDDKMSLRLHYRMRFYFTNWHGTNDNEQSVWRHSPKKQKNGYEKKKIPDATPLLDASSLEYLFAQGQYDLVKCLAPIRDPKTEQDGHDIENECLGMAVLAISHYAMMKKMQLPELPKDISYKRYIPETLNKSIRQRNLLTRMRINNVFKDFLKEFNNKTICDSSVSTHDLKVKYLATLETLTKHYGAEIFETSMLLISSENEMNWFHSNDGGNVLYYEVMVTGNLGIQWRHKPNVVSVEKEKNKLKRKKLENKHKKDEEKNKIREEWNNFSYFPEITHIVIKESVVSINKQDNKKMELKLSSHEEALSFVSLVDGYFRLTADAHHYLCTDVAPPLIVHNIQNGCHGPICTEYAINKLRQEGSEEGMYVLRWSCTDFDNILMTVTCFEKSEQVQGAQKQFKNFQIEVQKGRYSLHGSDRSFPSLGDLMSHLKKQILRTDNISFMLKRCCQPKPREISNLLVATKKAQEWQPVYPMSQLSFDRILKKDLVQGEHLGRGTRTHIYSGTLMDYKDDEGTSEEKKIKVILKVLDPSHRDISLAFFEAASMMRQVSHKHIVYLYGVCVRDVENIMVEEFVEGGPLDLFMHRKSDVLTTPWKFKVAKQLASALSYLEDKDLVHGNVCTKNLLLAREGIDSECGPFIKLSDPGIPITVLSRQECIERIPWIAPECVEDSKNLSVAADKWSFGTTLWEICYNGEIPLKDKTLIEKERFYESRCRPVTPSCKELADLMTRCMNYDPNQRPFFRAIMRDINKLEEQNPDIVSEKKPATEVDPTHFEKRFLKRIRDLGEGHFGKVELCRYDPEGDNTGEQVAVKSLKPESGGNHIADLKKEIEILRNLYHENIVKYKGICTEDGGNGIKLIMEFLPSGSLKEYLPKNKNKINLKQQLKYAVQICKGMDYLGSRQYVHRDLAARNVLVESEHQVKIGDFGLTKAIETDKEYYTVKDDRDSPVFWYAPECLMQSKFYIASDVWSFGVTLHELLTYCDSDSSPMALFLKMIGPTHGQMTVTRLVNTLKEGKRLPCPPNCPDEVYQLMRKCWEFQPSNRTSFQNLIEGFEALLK

[18] = biological target: Tyrosine-protein kinase ABL1 (Homo sapiens) (UniProt P00519); experiment: ABL1-phosphorylated DiscoveRx kinase panel; conditions: Compound concentration 1.0 uM
[19] = biological target: 5'-AMP-activated protein kinase catalytic subunit alpha-2 (Homo sapiens) (UniProt P54646); experiment: AMPK-alpha2 DiscoveRx kinase panel; conditions: Compound concentration 1.0 uM
[20] = biological target: Dual specificity mitogen-activated protein kinase kinase 1 (Homo sapiens) (UniProt Q02750); experiment: MEK1 DiscoveRx kinase panel; conditions: Compound concentration 1.0 uM
[21] = biological target: Serine/threonine-protein kinase N2 (Homo sapiens) (UniProt Q16513); experiment: PKN2 DiscoveRx kinase panel; conditions: Compound concentration 1.0 uM
[22] = biological target: STE20/SPS1-related proline-alanine-rich protein kinase (Homo sapiens) (UniProt Q9UEW8); experiment: STK39 DiscoveRx kinase panel; conditions: Compound concentration 1.0 uM
[23] = biological target: Fibroblast growth factor receptor 4 (Homo sapiens) (UniProt P22455); experiment: FGFR4 DiscoveRx kinase panel; conditions: Compound concentration 1.0 uM
[24] = biological target: Serine/threonine-protein kinase MRCK beta (Homo sapiens) (UniProt Q9Y5S2); experiment: MRCKB DiscoveRx kinase panel; conditions: Compound concentration 1.0 uM
[25] = biological target: Tyrosine-protein kinase ABL2 (Homo sapiens) (UniProt P42684); experiment: ABL2 DiscoveRx kinase panel; conditions: Compound concentration 1.0 uM
[26] = biological target: Ephrin type-B receptor 6 (Homo sapiens) (UniProt O15197); experiment: EPHB6 DiscoveRx kinase panel; conditions: Compound concentration 1.0 uM
[27] = biological target: Mitogen-activated protein kinase 15 (Homo sapiens) (UniProt Q8TD08); experiment: ERK8 DiscoveRx kinase panel; conditions: Compound concentration 1.0 uM
[28] = biological target: Serine/threonine-protein kinase/endoribonuclease IRE1 (Homo sapiens) (UniProt O75460); experiment: ERN1 DiscoveRx kinase panel; conditions: Compound concentration 1.0 uM
[29] = biological target: Tyrosine-protein kinase Fer (Homo sapiens) (UniProt P16591); experiment: FER DiscoveRx kinase panel; conditions: Compound concentration 1.0 uM
[30] = biological target: Interleukin-1 receptor-associated kinase 4 (Homo sapiens) (UniProt Q9NWZ3); experiment: IRAK4 DiscoveRx kinase panel; conditions: Compound concentration 1.0 uM
[31] = biological target: Tyrosine-protein kinase JAK1 (Homo sapiens) (UniProt P23458); experiment: JAK1(JH2domain-pseudokinase) DiscoveRx kinase panel; conditions: Compound concentration 1.0 uM
[32] = biological target: Serine/threonine-protein kinase LATS2 (Homo sapiens) (UniProt Q9NRM7); experiment: LATS2 DiscoveRx kinase panel; conditions: Compound concentration 1.0 uM
[33] = biological target: Tyrosine-protein kinase Lck (Homo sapiens) (UniProt P06239); experiment: LCK DiscoveRx kinase panel; conditions: Compound concentration 1.0 uM
[34] = biological target: MAP kinase-interacting serine/threonine-protein kinase 2 (Homo sapiens) (UniProt Q9HBH9); experiment: MKNK2 DiscoveRx kinase panel; conditions: Compound concentration 1.0 uM
Sequence of MAP kinase-interacting serine/threonine-protein kinase 2 (Homo sapiens) (Q9HBH9 whole entry, looked up): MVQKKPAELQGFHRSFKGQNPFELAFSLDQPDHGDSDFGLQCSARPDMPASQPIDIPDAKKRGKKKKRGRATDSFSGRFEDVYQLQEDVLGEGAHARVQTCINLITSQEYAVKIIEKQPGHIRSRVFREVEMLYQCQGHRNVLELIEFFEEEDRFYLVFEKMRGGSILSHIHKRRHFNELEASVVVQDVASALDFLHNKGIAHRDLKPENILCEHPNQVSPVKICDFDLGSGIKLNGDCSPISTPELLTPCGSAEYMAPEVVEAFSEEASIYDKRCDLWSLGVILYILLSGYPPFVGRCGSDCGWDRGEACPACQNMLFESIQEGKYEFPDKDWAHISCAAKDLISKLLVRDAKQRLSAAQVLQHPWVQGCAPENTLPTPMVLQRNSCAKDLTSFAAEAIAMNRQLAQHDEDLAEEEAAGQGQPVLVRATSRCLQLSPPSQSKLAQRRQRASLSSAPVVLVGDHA

[35] = biological target: Mitogen-activated protein kinase kinase kinase 14 (Homo sapiens) (UniProt Q99558); experiment: NIK DiscoveRx kinase panel; conditions: Compound concentration 1.0 uM
Sequence of Mitogen-activated protein kinase kinase kinase 14 (Homo sapiens) (Q99558 whole entry, looked up, the tested form may be a part): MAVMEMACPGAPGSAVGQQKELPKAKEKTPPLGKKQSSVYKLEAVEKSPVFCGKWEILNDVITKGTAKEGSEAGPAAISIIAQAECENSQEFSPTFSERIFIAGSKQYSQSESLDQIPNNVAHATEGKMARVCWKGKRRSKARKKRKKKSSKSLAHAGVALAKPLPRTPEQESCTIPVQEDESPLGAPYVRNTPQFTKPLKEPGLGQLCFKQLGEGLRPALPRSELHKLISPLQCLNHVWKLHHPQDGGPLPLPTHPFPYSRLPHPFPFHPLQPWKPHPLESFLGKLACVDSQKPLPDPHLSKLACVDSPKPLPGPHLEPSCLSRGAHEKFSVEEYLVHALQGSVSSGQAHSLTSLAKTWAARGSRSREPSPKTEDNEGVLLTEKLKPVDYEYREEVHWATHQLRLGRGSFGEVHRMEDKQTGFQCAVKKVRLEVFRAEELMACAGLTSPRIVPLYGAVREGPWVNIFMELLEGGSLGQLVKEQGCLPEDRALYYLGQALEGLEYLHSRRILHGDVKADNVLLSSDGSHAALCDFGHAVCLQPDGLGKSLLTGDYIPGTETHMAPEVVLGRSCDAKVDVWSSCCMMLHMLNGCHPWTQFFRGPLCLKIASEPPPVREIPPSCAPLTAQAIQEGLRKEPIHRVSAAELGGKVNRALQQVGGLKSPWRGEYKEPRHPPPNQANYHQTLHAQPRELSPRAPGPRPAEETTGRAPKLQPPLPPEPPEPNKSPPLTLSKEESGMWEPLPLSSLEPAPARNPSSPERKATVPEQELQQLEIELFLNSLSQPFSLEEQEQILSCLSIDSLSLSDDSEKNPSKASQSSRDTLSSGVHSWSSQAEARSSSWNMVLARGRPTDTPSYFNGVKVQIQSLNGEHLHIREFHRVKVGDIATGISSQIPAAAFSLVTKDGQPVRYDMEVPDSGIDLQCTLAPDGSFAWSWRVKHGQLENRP

[36] = biological target: Phosphatidylinositol 4-phosphate 3-kinase C2 domain-containing subunit beta (Homo sapiens) (UniProt O00750); experiment: PIK3C2B DiscoveRx kinase panel; conditions: Compound concentration 1.0 uM
[37] = biological target: Dual serine/threonine and tyrosine protein kinase (Homo sapiens) (UniProt Q6XUX3); experiment: RIPK5 DiscoveRx kinase panel; conditions: Compound concentration 1.0 uM
[38] = biological target: Serine/threonine-protein kinase SIK2 (Homo sapiens) (UniProt Q9H0K1); experiment: SIK2 DiscoveRx kinase panel; conditions: Compound concentration 1.0 uM
[39] = biological target: Serine/threonine-protein kinase ULK3 (Homo sapiens) (UniProt Q6PHR2); experiment: ULK3 DiscoveRx kinase panel; conditions: Compound concentration 1.0 uM
MDA-MB-453 = experiment: MDA-MB-453 cell line Proliferation assay; assay type: functional, Homo sapiens; conditions: time 4 day
MDA-MB-468 = experiment: MDA-MB-468 cell line Proliferation assay; assay type: functional, Homo sapiens; conditions: time 4 day
[40] = biological target: D(3) dopamine receptor (Homo sapiens) (UniProt P35462); conditions: Compound concentration 10.0 uM
[41] = biological target: Kappa-type opioid receptor (Homo sapiens) (UniProt P41145); conditions: Compound concentration 10.0 uM
[42] = biological target: Beta-1 adrenergic receptor (Homo sapiens) (UniProt P08588); conditions: Compound concentration 10.0 uM
[43] = biological target: GABA-A receptor; anion channel (Rattus norvegicus) (UniProt O09028+P15431+P18506+P18508+P19969+P20236+P23574+P23576+P28471+P28473+P30191+P62813+P63079+P63138+Q91ZM7+Q9ES14); conditions: Compound concentration 10.0 uM
[44] = biological target: D(1A) dopamine receptor (Homo sapiens) (UniProt P21728); conditions: Compound concentration 10.0 uM
Rattus norvegicus [45] = species: Rattus norvegicus; conditions: Compound concentration 10.0 uM

In the case of `COc1cnccc1Nc1nc(-c2nn(Cc3c(F)cc(OCCO)cc3F)c3ccccc23)ncc1OC`, the inhibition at 90 min, 10 µM [1] was 8% (not active), the inhibition [2] was 14% and the inhibition [3] was 54%. For the same molecule, the inhibition (Rattus norvegicus [4]) was 0%, the IC50 [5] was 6.5 nM (active) and the residual activity [6] was 55%. The residual activity [7] was 62%, the residual activity [8] was 69% and the residual activity [9] was 70%. The residual activity [10] was 72%, the residual activity [11] was 80% and the residual activity [12] was 82%. The residual activity [13] was 82%, the residual activity [14] was 83% and the residual activity [15] was 89%. It also gave a residual activity [16] of 89%, a residual activity [17] of 90% and a residual activity [18] of 94%. It also gave a residual activity [19] of 95%, a residual activity [20] of 97% and a residual activity [21] of 97%. For the same molecule, the residual activity [22] was 97%, the residual activity [23] was 98% and the residual activity [24] was 98%. The residual activity [25] was 100%, the residual activity [26] was 100% and the residual activity [27] was 100%. The residual activity [28] was 100%, the residual activity [29] was 100% and the residual activity [30] was 100%. For the same molecule, the residual activity [31] was 100%, the residual activity [32] was 100% and the residual activity [33] was 100%. For the same molecule, the residual activity [34] was 100%, the residual activity [35] was 100% and the residual activity [36] was 100%. It also gave a residual activity [37] of 100%, a residual activity [38] of 100% and a residual activity [39] of 100%. For the same molecule, the “Cell Proliferation IC50” value (MDA-MB-453) was 1.2 µM, the “Cell Proliferation IC50” value (MDA-MB-468) was 1 µM and the inhibition [40] was 1.89%. The inhibition [41] was 15.2%, the inhibition [42] was -6.28% and the inhibition [43] was 24.9%. For the same molecule, the inhibition [44] was 5% and the inhibition (Rattus norvegicus [45]) was 1%.
